The results in this text go back to PubChem BioAssay AID651829 (Broad Institute, 2012).

The assay deals with Kelch-like ECH-associated protein 1 (Homo sapiens) (UniProt Q14145). The assay can be described thus: thermal stabilisation of Keap1 Kelch domain – biophysical, thermal shift, RT-PCR instrument, dry powder, orthogonal assay for Keap1-Nrf2 interaction inhibitor project, dose response (AID 651829). The settings on record: Recombinant Keap1 Kelch domain, Sypro Orange, active compounds read high.
Chain of Kelch-like ECH-associated protein 1 (Homo sapiens) (Q14145 whole entry, looked up, the tested form may be a part): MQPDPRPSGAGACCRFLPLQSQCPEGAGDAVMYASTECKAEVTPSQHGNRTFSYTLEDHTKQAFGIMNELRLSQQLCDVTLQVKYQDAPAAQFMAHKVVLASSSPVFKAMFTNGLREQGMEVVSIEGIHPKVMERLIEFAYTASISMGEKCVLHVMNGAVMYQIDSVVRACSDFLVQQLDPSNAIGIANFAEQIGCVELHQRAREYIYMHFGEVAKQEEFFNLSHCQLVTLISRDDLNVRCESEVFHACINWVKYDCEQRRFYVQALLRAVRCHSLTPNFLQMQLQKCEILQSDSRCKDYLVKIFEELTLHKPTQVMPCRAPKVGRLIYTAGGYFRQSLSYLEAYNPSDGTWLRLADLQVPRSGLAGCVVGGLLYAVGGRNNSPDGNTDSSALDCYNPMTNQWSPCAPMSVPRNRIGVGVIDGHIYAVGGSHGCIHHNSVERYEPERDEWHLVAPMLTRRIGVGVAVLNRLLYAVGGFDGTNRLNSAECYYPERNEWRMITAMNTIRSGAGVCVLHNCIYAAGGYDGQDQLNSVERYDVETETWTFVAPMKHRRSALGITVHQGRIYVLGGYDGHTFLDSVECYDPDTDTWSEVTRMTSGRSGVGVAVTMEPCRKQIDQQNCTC

Each structure is given as a SMILES string. “And” between values parts separate entries of the source, which are not always exact repeats. Equal entries are not always repeated. The source made the active and inactive calls.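 The calls were made as follows: active = max delta Tm melting temperature shift above 1 degree C at some tested dose; inactive = the rest.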

In the case of `O=C1c2ccccc2C(=O)N1CC1c2ccccc2CCN1C(=O)Cc1ccccc1` (centres undefined), the max delta Tm (at 0.08 µM, top dose 10 µM) is 0.259 °C (inactive). On to `CC(C)OC(=O)C(C(=O)C(F)(F)F)c1cc(NS(=O)(=O)c2ccccc2)c2ccccc2c1O` (centres undefined), for which, under “at 38 µM, top dose 38 µM”, the max delta Tm is 4.43 degrees C.

Regarding `O=C1c2ccccc2C(=O)N1C[C@H]1NCCc2ccccc21`, the max delta Tm (at 1.2 µM, top dose 38 µM) was 0.003 °C (inactive). Regarding `CC(=O)Nc1cc(NS(=O)(=O)c2c(C)cc(C)cc2C)c2ccccc2c1O`, the max delta Tm (at 5 µM, top dose 38 µM) is 0.953 °C (inactive). As to `Cc1ccc(S(=O)(=O)NC[C@@H]2c3ccccc3CCN2C(=O)[C@@H]2CCCC[C@@H]2C(=O)O)c(C)c1`, where the note is “at 19.5 µM, top dose 38 µM”, the max delta Tm is 0.174 °C (inactive). As to `Cc1ccc(S(=O)(=O)NNc2nc(C(C(=O)OC(C)C)C(=O)C(F)(F)F)nc3ccccc23)cc1` (centres undefined), the max delta Tm (at 0.3 µM, top dose 38 µM) is 0.2 °C (inactive).

As to `O=C(O)[C@H]1CCCC[C@H]1C(=O)N1CCc2ccccc2[C@H]1CNS(=O)(=O)c1ccccc1`, the max delta Tm (at 38 µM, top dose 38 µM) is 0.368 °C (inactive). As for `CCOC(=O)C(C(=O)OCC)c1cc(CNS(=O)(=O)c2ccc(C)cc2C)c2ccccc2n1`, the max delta Tm (at 0.3 µM, top dose 38 µM) was 0.118 °C (inactive). Turning to `O=C(O)C1CCCCC1C(=O)N1CCc2ccccc2C1CN1C(=O)c2ccccc2S1(=O)=O` (centres undefined), the max delta Tm (at 38 µM, top dose 38 µM) was 3.85 degrees C. Same read-out and setting: the same measure for `O=C(Cc1ccccc1)NC[C@@H]1c2ccccc2CCN1C(=O)[C@@H]1CCCC[C@@H]1C(=O)O`: 1.66 degrees C. Consider `Cc1cc(C)c(S(=O)(=O)Nc2cc(C(C(=O)OC(C)C)C(=O)C(F)(F)F)c(O)c3ccccc23)c(C)c1` (centres undefined), for which the max delta Tm (at 19.5 µM, top dose 19.5 µM) is 11.4 degrees C. For `O=C1c2ccccc2C(=O)N1C[C@@H]1c2ccccc2CCN1C(=O)OCc1ccccc1`, under “at 0.16 µM, top dose 38 µM”, the max delta Tm is -0.028 °C (inactive). Still for that read-out and setting: the same measure for `O=C(NC[C@@H]1c2ccccc2CCN1C(=O)[C@@H]1CCCC[C@@H]1C(=O)O)c1ccccc1`: 0.132 °C (inactive). As to `COC(=O)[C@@H]1CCCC[C@@H]1C(=O)N1CCc2ccccc2[C@H]1CN1C(=O)c2ccccc2C1=O`, the max delta Tm (at 1.2 µM, top dose 38 µM) is -0.023 °C (inactive).

On to `O=C(O)C1CCCCC1C(=O)Nc1ccccc1CN1C(=O)c2ccccc2C1=O` (centres undefined), for which the max delta Tm (at 2.6 µM, top dose 38 µM) was 0.138 °C (inactive). In the case of `COc1ccccc1CCNC(=O)[C@@H]1c2ccccc2CCN1C(=O)C1CCCCC1C(=O)O` (some centres undefined), the max delta Tm by setting is: (at 0.3 µM, top dose 38 µM) 0.192 °C (inactive); (at 19.5 µM, top dose 38 µM) 0.102 °C (inactive).

On to `O=C(O)/C=C\C(=O)N1CCc2ccccc2C1CN1C(=O)c2ccccc2C1=O` (centres undefined), for which the max delta Tm (at 38 µM, top dose 38 µM) was 1.14 degrees C.

On to `CCOC(=O)Cc1nc(NS(=O)(=O)c2c(C)cc(C)cc2C)c2ccccc2n1`, for which, under “at 0.6 µM, top dose 38 µM”, the max delta Tm is 0.029 °C (inactive). Take `O=C1c2ccccc2C(=O)N1C[C@@H]1c2ccccc2CCN1C(=O)C1CCCCC1`: for the setting “at 38 µM, top dose 38 µM”, the max delta Tm is 0.208 °C (inactive).

With `Cc1ccc(S(=O)(=O)NC(=O)[C@@H]2c3ccccc3CCN2C(=O)[C@@H]2CCCC[C@@H]2C(=O)O)cc1`, the max delta Tm (at 0.3 µM, top dose 38 µM) was 0.155 °C (inactive) and the max delta Tm (at 38 µM, top dose 38 µM) was 2.68 degrees C. As to `O=C(NC[C@@H]1c2ccccc2CCN1C(=O)[C@@H]1CCCC[C@@H]1C(=O)O)c1ccccc1CO`, the max delta Tm (at 38 µM, top dose 38 µM) was 1.92 degrees C. As for `O=C(NC[C@@H]1c2ccccc2CCN1C(=O)[C@@H]1CCCC[C@@H]1C(=O)O)OCC1c2ccccc2-c2ccccc21`, under “at 0.6 µM, top dose 38 µM”, the max delta Tm is 0.138 °C (inactive). In the case of `O=C(Oc1cc(CN2C(=O)c3ccccc3C2=O)c2ccccc2[n+]1[O-])c1cccc(Cl)c1`, the max delta Tm (at 2.6 µM, top dose 38 µM) was 0.062 °C (inactive). Regarding `COC(=O)[C@@H]1CCCC[C@@H]1C(=O)N1CCc2ccccc2[C@@H]1CN1C(=O)c2ccccc2C1=O`, the max delta Tm (at 0.6 µM, top dose 38 µM) was -0.035 °C (inactive). Consider `O=C(O)[C@H]1C2C=CC(C2)[C@H]1C(=O)N1CCc2ccccc2C1CN1C(=O)c2ccccc2C1=O` (some centres undefined), for which the max delta Tm (at 38 µM, top dose 38 µM) was 1.86 degrees C. For `O=C(O)[C@H]1CCCC[C@H]1C(=O)N1CCc2ccccc2C1CCN1C(=O)c2ccccc2C1=O` (some centres undefined), the max delta Tm (at 0.6 µM, top dose 38 µM) was 0.157 °C (inactive) and 0.069 °C (inactive).

For the molecule `O=C(O)CCCC(=O)N1CCc2ccccc2C1CN1C(=O)c2ccccc2C1=O` (centres undefined), the max delta Tm (at 10 µM, top dose 38 µM) was 0.13 °C (inactive). Regarding `O=C(O)[C@@H]1CCCN1C(=O)N1CCc2ccccc2[C@H]1CN1C(=O)c2ccccc2C1=O`, where the note is “at 38 µM, top dose 38 µM”, the max delta Tm is 2.21 degrees C.

For `NC(=O)c1ccccc1C(=O)NC[C@@H]1c2ccccc2CCN1C(=O)[C@@H]1CCCC[C@@H]1C(=O)O`, the max delta Tm (at 38 µM, top dose 38 µM) is 0.771 °C (inactive). With `COc1ccc(CCN=C2C=C(NS(=O)(=O)c3c(C)cc(C)cc3C)c3ccccc3C2=O)cc1`, under “at 2.6 µM, top dose 38 µM”, the max delta Tm was 0.288 °C (inactive). With `CC(C)CNc1nc(NS(=O)(=O)c2ccccc2)c2ccccc2n1`, the max delta Tm (at 0.6 µM, top dose 38 µM) was 0.095 °C (inactive).

Take `O=C(O)[C@H]1CCCC[C@H]1C(=O)N1CCc2ccccc2C1` (racemic): the max delta Tm (at 0.16 µM, top dose 38 µM) was -0.041 °C (inactive). For the molecule `O=C(O)C1CCCCC1C(=O)N1CCCCC1CN1C(=O)c2ccccc2C1=O` (centres undefined), the max delta Tm (at 2.6 µM, top dose 38 µM) is -0.027 °C (inactive). In the case of `O=C(O)CC(=O)N1CCc2ccccc2C1CN1C(=O)c2ccccc2C1=O` (centres undefined), the max delta Tm (at 10 µM, top dose 38 µM) was -0.045 °C (inactive). As for `Cc1cc(C)c(S(=O)(=O)Nc2ncnc3ccccc23)c(C)c1`, where the note is “at 1.2 µM, top dose 38 µM”, the max delta Tm is 0.086 °C (inactive). On to `O=C(O)C1CCCCC1C(=O)NCC1c2ccccc2CCN1C(=O)Cc1ccccc1` (centres undefined), for which, under “at 0.3 µM, top dose 38 µM”, the max delta Tm was 0.052 °C (inactive).

Turning to `O=C(O)Cc1ccccc1C(=O)N1CCc2ccccc2[C@H]1CN1C(=O)c2ccccc2C1=O`, the max delta Tm (at 38 µM, top dose 38 µM) is 4.85 degrees C. Still for that read-out and setting: the same measure for `O=C(NCCc1ccccc1)c1ccccc1C(=O)NC[C@@H]1c2ccccc2CCN1C(=O)C1CCCCC1C(=O)O` (some centres undefined): 2.14 degrees C; for `O=C(NCCO)c1ccccc1C(=O)NC[C@@H]1c2ccccc2CCN1C(=O)C1CCCCC1C(=O)O` (some centres undefined): 1.77 degrees C. With `O=C(O)C1CCCCC1C(=O)N1CCc2ccccc2C1c1ccccc1` (centres undefined), the max delta Tm (at 1.2 µM, top dose 38 µM) is -0.003 °C (inactive).

Regarding `Cc1ccc(S(=O)(=O)NNc2nc(NCC(N)=O)nc3ccccc23)cc1`, the max delta Tm (at 0.3 µM, top dose 38 µM) was 0.22 °C (inactive). On to `Cc1ccc(S(=O)(=O)NNc2nc(N3CC(O)CC3C(=O)O)nc3ccccc23)cc1` (centres undefined), for which the max delta Tm (at 1.2 µM, top dose 38 µM) was 0.172 °C (inactive).

Consider `Cc1ccc(S(=O)(=O)Nc2cc(C(C(=O)OC(C)C)C(=O)C(F)(F)F)c(O)c3ccccc23)cc1` (centres undefined), for which the max delta Tm (at 38 µM, top dose 38 µM) was 6.81 degrees C. `Cc1ccccc1S(=O)(=O)Nc1cc(C(C(=O)OC(C)C)C(=O)C(F)(F)F)c(O)c2ccccc12` (centres undefined): for the setting “at 38 µM, top dose 38 µM”, the max delta Tm is 7.77 degrees C. As for `O=C(O)C1CCCCC1C(=O)N1CCc2ccccc2C1CN1C(=O)Cc2ccccc2C1=O` (centres undefined), for the setting “at 38 µM, top dose 38 µM”, the max delta Tm was 1.59 degrees C. Consider `O=C(NCCCN1CCOCC1)c1ccccc1C(=O)NC[C@@H]1c2ccccc2CCN1C(=O)C1CCCCC1C(=O)O` (some centres undefined), for which, for the setting “at 0.16 µM, top dose 38 µM”, the max delta Tm is 0.217 °C (inactive). `COC(=O)CNc1nc(NS(=O)(=O)c2c(C)cc(C)cc2C)c2ccccc2n1`: the max delta Tm (at 0.3 µM, top dose 38 µM) is 0.26 °C (inactive).

In the case of `CCOC(=O)C(C(=O)OCC)c1cc(CN2C(=O)c3ccccc3C2=O)c2ccccc2n1`, the max delta Tm (at 1.2 µM, top dose 38 µM) is 0.127 °C (inactive).

With `Cc1ccc(S(=O)(=O)Nc2cc(C(C(=O)OC(C)C)C(=O)C(F)(F)F)c(O)c3ccccc23)c(C)c1` (centres undefined), for the setting “at 38 µM, top dose 38 µM”, the max delta Tm was 9.26 degrees C.

Take `CCOC(=O)C(C(=O)OCC)c1nc(NS(=O)(=O)c2c(C)cc(C)cc2C)c2ccccc2n1`: under “at 2.6 µM, top dose 38 µM”, the max delta Tm is 0.045 °C (inactive). Regarding `C[C@@H](NC(=O)C1CCCC[C@H]1C(=O)O)c1ccccc1` (mixture of isomers), the max delta Tm (at 38 µM, top dose 38 µM) is 0.005 °C (inactive). Still for that read-out and setting: the same measure for `O=C(O)C1CCCCC1C(=O)N1CCc2ccccc2C1CN1C(=O)[C@H]2CCCC[C@H]2C1=O` (some centres undefined): 2.32 degrees C; for `COC(=O)C(C(=O)OC)c1cc(NS(=O)(=O)c2c(C)cc(C)cc2C)c2ccccc2c1O`: 3.82 degrees C; for `O=C(O)[C@H]1CCCC[C@H]1C(=O)N1CCc2ccccc2[C@H]1CNS(=O)(=O)c1ccc([N+](=O)[O-])cc1`: 0.907 °C (inactive). On to `COC(=O)[C@H]1CCCC[C@H]1C(=O)N1CCc2ccccc2[C@H]1CN1C(=O)c2ccccc2C1=O`, for which the max delta Tm (at 1.2 µM, top dose 38 µM) was -0.022 °C (inactive).

Take `O=C1c2ccccc2C(=O)N1CC1=NCCc2ccccc21`: the max delta Tm (at 5 µM, top dose 38 µM) is -0.008 °C (inactive). Consider `C[C@H](NC(=O)C1CCCC[C@H]1C(=O)O)c1ccccc1` (mixture of isomers), for which the max delta Tm (at 10 µM, top dose 38 µM) was -0.003 °C (inactive).

Consider `Cc1cc(C)c(S(=O)(=O)Nc2nc(N(C)C)nc3ccccc23)c(C)c1`, for which the max delta Tm (at 0.16 µM, top dose 38 µM) is 0.107 °C (inactive).

With `C=CC(=O)NC[C@@H]1c2ccccc2CCN1C(=O)[C@@H]1CCCC[C@@H]1C(=O)O`, for the setting “at 0.6 µM, top dose 38 µM”, the max delta Tm is 0.229 °C (inactive).

With `O=S(=O)(Nc1nc(NCC2CCCCC2)nc2ccccc12)c1ccccc1`, where the note is “at 0.3 µM, top dose 38 µM”, the max delta Tm was 0.21 °C (inactive).

For the molecule `Cc1cc(C)c(S(=O)(=O)Nc2nc(C(C(=O)OC(C)C)C(=O)C(F)(F)F)nc3ccccc23)c(C)c1` (centres undefined), where the note is “at 2.6 µM, top dose 38 µM”, the max delta Tm was 0.113 °C (inactive). Take `Cc1cc(C)c(S(=O)(=O)Nc2nc(NCCO)nc3ccccc23)c(C)c1`: the max delta Tm (at 0.16 µM, top dose 38 µM) is 0.147 °C (inactive). `O=C(O)CCC(=O)N1CCc2ccccc2C1CN1C(=O)c2ccccc2C1=O` (centres undefined): under “at 38 µM, top dose 38 µM”, the max delta Tm is 0.462 °C (inactive).

In the case of `O=C(NC[C@@H]1c2ccccc2CCN1C(=O)[C@@H]1CCCC[C@@H]1C(=O)O)c1ccc(CCl)cc1`, where the note is “at 38 µM, top dose 38 µM”, the max delta Tm is 0.364 °C (inactive). As to `Cc1ccc(S(=O)(=O)NC2=CC(=N[C@@H](C)C(=O)OC(C)(C)C)C(=O)c3ccccc32)c(C)c1`, the max delta Tm (at 19.5 µM, top dose 38 µM) is 0.3 °C (inactive). As for `O=C(O)C1CCCCC1C(=O)N1CCc2ccccc2C1CN1Cc2ccccc2C1=O` (centres undefined), the max delta Tm (at 38 µM, top dose 38 µM) is 5.56 degrees C. The same measure, in the same setting: the same measure for `NC(=O)[C@H]1CCCC[C@H]1C(=O)N1CCc2ccccc2[C@H]1CN1C(=O)c2ccccc2C1=O`: 1.34 degrees C.
